Measured values reported in patent publication USRE38460E1 (priority 1994, dated 2004).
Read-outs that look alike come from different tables or passages of the source.

Columns and labels:
[1] = biological target: T1, acetylcholinesterase (AChE) (Rattus norvegicus, UniProt P37136); assay: biochemical; type: biochemical; conditions: Table 2; for IC50: AChE taken from homogenate of rat's cortex; for IC50 ratio BuChE/AChE: cortex AChE, serum BuChE
T1 construct: from tissue; host or cells: homogenate of rat cortex
T1 sequence (P37136 32-614): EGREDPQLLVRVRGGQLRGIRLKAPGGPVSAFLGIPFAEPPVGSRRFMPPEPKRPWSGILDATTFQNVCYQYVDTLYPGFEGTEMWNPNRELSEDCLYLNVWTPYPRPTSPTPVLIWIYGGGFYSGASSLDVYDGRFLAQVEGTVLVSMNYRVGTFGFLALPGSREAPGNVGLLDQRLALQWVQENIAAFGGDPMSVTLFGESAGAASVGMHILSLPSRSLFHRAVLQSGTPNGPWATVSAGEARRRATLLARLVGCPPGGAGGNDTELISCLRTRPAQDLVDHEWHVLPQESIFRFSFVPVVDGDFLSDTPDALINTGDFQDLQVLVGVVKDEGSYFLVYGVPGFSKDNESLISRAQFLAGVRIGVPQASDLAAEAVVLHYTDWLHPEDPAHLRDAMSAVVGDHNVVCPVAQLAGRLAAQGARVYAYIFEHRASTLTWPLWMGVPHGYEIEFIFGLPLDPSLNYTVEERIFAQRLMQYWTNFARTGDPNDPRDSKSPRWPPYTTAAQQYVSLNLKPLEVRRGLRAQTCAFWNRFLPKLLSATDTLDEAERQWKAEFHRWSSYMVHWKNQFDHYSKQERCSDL
Experimental: (§1) In the present invention a calorimetric method reported by Ellman was used to determine the effect of inhibition of the pharmaceutical on enzyme activity. The total volume of the solution of the enzyme activity reaction was 4 ml, which contained 0.3 mmol/L of acetylcholin iodide (acetylcholinesterase substrate), or 0.4 mmol/L of butyrylcholin iodide (butyrylcholinesterase substrate), 1 ml of the buffer solution of 25 mmol/L of phosphate of pH 7.4, and water to make up to 4 ml (including the amount of the enzyme solution and the testing reagent added afterwards). After the solution was kept at 37° C. for 5 minutes, 0.1-0.2 ml of enzyme solution (red cell membrane or serum of rat) was added, or 0.1-0.3 ml of the testing reagent was added at the same time. The solution was kept at the same temperature for another 8 minutes. Then 1 ml of 3% of sodium lauryl sulphate was added to terminate the reaction. Finally 1 ml of 0.2% 5,5-dithio-2,2′-nitro-benzoic acid solution was added for developing.
(§2) AChE taken from homogenate of rat's cortex. BuChE taken from rat's serum.

BuChE = biological target: T2, BuChE (Rattus norvegicus, UniProt Q9JKC1); assay: In-vitro anticholinesterase effect (Table 6), BuChE; type: biochemical; conditions: read-out: inhibition activity BuChE at 10(μM)
T2 construct: from tissue; host or cells: rat serum
Experimental: as §1

[2] = system: memory impairment caused by scopolamine; assay: Mouse passive escape operation (platform jumping method), memory impairment caused by scopolamine; type: in vivo, mice; conditions: for delitescence of get-down (sec ± SEM): mice, tested after 24 hours; for effect on improving memory (in words): mouse passive escape operation, compared with compound of formula (I)
[3] = system: memory impairment caused by scopolamine; assay: 8-arm maze spatial distinction operation of rat, memory impairment caused by scopolamine; type: in vivo; conditions: for effect on improving memory (in words): 8-arm maze spatial distinction operation of rat, compared with compound of formula (I); for No. of mistakes in operation before reaching the standard, reference memory (X + SEM) / No. of mistakes in operation before reaching the standard, working memory (X + SEM): rats, 8-arm maze
[4] = biological target: T3, acetylcholinesterase (AChE) (Rattus norvegicus, UniProt P37136); assay: biochemical; type: biochemical; conditions: for IC50 / IC50 ratio BuChE/AChE: Table 1; for IC50: AChE taken from rat's red cell membrane; for IC50 ratio BuChE/AChE: red cell membrane AChE, serum BuChE; for inhibition effect on acetylcholinesterase (in words) / inhibition effect on acetylcholinesterase compared with huperzine A / inhibition effect on acetylcholinesterase compared with physostigmine and galanthamine: see Tables 1, 2 and 6
T3 construct: from tissue; host or cells: rat red cell membrane
Experimental: as §1
(§3) AChE taken from rat's red cell membrane. BuChE taken from rat's serum.
T3 sequence (P37136 other isoform, or with tags, fused parts or gaps): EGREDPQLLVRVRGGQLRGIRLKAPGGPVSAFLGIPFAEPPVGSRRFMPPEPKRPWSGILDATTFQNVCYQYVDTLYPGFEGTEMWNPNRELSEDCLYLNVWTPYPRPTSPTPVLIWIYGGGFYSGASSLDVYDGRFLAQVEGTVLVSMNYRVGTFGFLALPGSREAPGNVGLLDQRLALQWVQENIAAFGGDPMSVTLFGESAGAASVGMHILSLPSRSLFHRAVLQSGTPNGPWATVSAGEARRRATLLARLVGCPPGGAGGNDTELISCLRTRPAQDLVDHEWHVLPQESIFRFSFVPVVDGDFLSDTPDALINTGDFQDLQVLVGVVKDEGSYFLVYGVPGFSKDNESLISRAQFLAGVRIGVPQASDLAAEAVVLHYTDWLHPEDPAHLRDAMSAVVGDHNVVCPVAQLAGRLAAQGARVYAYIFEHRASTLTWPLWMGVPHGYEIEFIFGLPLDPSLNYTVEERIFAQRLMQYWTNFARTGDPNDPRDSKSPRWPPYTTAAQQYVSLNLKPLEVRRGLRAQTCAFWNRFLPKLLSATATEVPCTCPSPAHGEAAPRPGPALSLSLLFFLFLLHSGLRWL

[5] = biological target: T4, butyrylcholinesterase (BuChE) (Rattus norvegicus, UniProt Q9JKC1); assay: In-vitro anticholinesterase effect, colorimetric method (Ellman), BuChE from rat's serum; type: biochemical; conditions: for inhibition effect on butyrylcholinesterase (pseudo enzyme) compared with huperzine A: see Tables 1, 2 and 6
T4 construct: from tissue; host or cells: rat serum
Experimental: as §1, §3, §2

acetylcholinesterase = biological target: T5, acetylcholinesterase (Rattus norvegicus, UniProt P37136); assay: Study on kinetics of enzyme; type: biochemical
T5 sequence (P37136 32-614): T1 sequence (P37136 32-614)
Experimental: In the present invention a calorimetric method reported by Ellman was used to determine the effect of inhibition of the pharmaceutical on enzyme activity. The total volume of the solution of the enzyme activity reaction was 4 ml, which contained 0.3 mmol/L of acetylcholin iodide (acetylcholinesterase substrate), or 0.4 mmol/L of butyrylcholin iodide (butyrylcholinesterase substrate), 1 ml of the buffer solution of 25 mmol/L of phosphate of pH 7.4, and water to make up to 4 ml (including the amount of the enzyme solution and the testing reagent added afterwards). After the solution was kept at 37° C. for 5 minutes, 0.1-0.2 ml of enzyme solution (red cell membrane or serum of rat) was added, or 0.1-0.3 ml of the testing reagent was added at the same time. The solution was kept at the same temperature for another 8 minutes. Then 1 ml of 3% of sodium lauryl sulphate was added to terminate the reaction. Finally 1 ml of 0.2% 5,5-dithio-2,2′-nitro-benzoic acid solution was added for developing. “721” spectrophotometer was used to determine the density of light at 440 nm. A solution without addition of the pharmaceutical to inhibit the enzyme activity was used as a control (100%).

AChE = biological target: T6, AChE (Rattus norvegicus, UniProt P37136); assay: biochemical; conditions: Table 6
T6 construct: 0.1-0.2 ml of enzyme solution (red cell membrane or serum of rat) was added; from tissue; host or cells: rat tissue
T6 sequence (P37136 32-614): T1 sequence (P37136 32-614)
Experimental: as §1

mice = assay: Critical toxicity on mice (Bliss method); type: in vivo; conditions: for LD50 relative to that of the compound of formula (I): mice; for critical toxicity compared with compound (I): mouse, in vivo
Experimental: (§4) Test of each pharmaceutical was carried out using 4-5 dosage group.
(§5) Mortality within 7 days was observed.

[6] = Critical toxicity on mice (Bliss method); type: in vivo; conditions: mouse, in vivo, po, mice, p.o., Bliss method, mortality within 7 days
Experimental: as §4, §5

[7] = scopolamine + derivative 2 + 0.2 mg/kg ip + po
[8] = scopolamine + derivative 2 + 0.4 mg/kg ip + po
[9] = scopolamine + derivative 0.124 + 0.2 mg/kg ip + po
[10] = first of two columns headed LD50, read-out: LD50 (first column) (95% confidence limit)
[11] = second of two columns headed LD50, read-out: LD50 (second column) (95% confidence limit)
[12] = scopolamine + derivative 0.2 ± 0.1 mg/kg ip + po
[13] = scopolamine + derivative 0.2 ± 0.3 mg/kg ip + po

T4 sequence (Q9JKC1 24-597): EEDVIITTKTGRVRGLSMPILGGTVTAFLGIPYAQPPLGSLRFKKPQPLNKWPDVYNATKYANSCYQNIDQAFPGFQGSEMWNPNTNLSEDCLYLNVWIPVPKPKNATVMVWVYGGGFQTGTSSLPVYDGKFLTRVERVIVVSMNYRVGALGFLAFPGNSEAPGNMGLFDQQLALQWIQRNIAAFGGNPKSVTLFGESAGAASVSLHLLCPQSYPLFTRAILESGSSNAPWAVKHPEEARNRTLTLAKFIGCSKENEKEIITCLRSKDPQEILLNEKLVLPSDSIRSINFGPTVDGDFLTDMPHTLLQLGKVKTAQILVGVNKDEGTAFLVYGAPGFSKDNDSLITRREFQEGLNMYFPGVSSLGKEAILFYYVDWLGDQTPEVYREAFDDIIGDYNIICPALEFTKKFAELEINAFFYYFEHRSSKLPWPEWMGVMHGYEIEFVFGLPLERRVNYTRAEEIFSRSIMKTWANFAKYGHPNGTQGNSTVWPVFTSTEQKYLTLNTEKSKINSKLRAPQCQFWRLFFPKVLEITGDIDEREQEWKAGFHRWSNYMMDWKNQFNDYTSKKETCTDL
T2 sequence (Q9JKC1 24-597): as above

Row | SMILES | IC50 [1] | IC50 ratio BuChE/AChE [1] | delitescence of get-down (sec ± SEM) [2, 7] | delitescence of get-down (sec ± SEM) [2, 8] | effect on improving memory (in words) [2] | effect on improving memory (in words) [3] | inhibitor of acetylcholinesterase (summary in words) [4] | IC50 [4] | IC50 ratio BuChE/AChE [4] | inhibition effect on acetylcholinesterase (in words) [4] | inhibition effect on acetylcholinesterase compared with huperzine A [4] | inhibition effect on acetylcholinesterase compared with physostigmine and galanthamine [4] | IC50 [5] | inhibition effect on butyrylcholinesterase (pseudo enzyme) compared with huperzine A [5] | combination with acetylcholinesterase (reversibility) (acetylcholinesterase) | LD50 relative to that of the compound of formula (I) (mice) | critical toxicity compared with compound (I) (mice) | LD50 [6, 10] | LD50 [6, 11] | other results
1 | CC=C1C2C=C(C)CC1(N=Cc1ccc(OC)c(O)c1)c1ccc(=O)[nH]c1C2 (stereo not drawn) [derivative No. 18] | 151 nM | 708.2 | 67.7 ± 11.7 s | 48.7 ± 6.9 s | very strong effect | very strong effect | highly effective selective inhibitors | 151 nM | 709.9 | remarkable inhibition effect | slightly weaker | apparently stronger | 107000 nM | weaker inhibition effect | reversible | ⅓ | lower critical toxicity | 9.6 mg/kg | 14.4 mg/kg | inhibition at 10 µM (BuChE): 0%; delitescence of get-down (sec ± SEM) ([2]; scopolamine + derivative 3 + 0.3 mg/kg ip + po): 64.0 ± 9.8 s; No. of mistakes in operation before reaching the standard, reference memory (X + SEM) [3, 9]: 0.67; No. of mistakes in operation before reaching the standard, working memory (X + SEM) [3, 9]: 0.33; BuChE/AChE (AChE): >500; inhibition at 1 µM (AChE; 1 μM): 90.2%; IC50 (AChE; read-out: inhibition activity AChE IC50): 84 nM
2 | CC=C1C2C=C(C)CC1(N=Cc1c(O)cc(OC)cc1OC)c1ccc(=O)[nH]c1C2 (stereo not drawn) [derivative No. 19] | 144 nM | 724.6 | 71.6 ± 14.5 s | 92.2 ± 15.5 s | very strong effect | very strong effect | highly effective selective inhibitors | 145 nM | 722.1 | remarkable inhibition effect | slightly weaker | apparently stronger | 105000 nM | weaker inhibition effect | reversible | ⅓ | lower critical toxicity | 11.1 mg/kg | 14.1 mg/kg | delitescence of get-down (sec ± SEM) ([2]; scopolamine + derivative 2 + 0.1 mg/kg ip + po): 48.9 ± 12.6 s; delitescence of get-down (sec ± SEM) ([2]; scopolamine + derivative 2 + 0.3 mg/kg ip + po): 99.8 ± 16.4 s; No. of mistakes in operation before reaching the standard, reference memory (X + SEM) [3, 12]: 1.33 ± 0.21; No. of mistakes in operation before reaching the standard, working memory (X + SEM) [3, 12]: 1.33; No. of mistakes in operation before reaching the standard, reference memory (X + SEM) [3, 13]: 0.33; No. of mistakes in operation before reaching the standard, working memory (X + SEM) [3, 13]: 0.17
